The source made the active and inactive calls. No cut-off for these calls is given here.
What was measured:
MCF7 [1] = experiment: Cytotoxicity against human MCF7 cells assessed as reduction in cell viability measured after 72 hrs by MTS assay; type: functional, cell-based; details: MCF7, 72 h
PANC-1 [2] = experiment: Cytotoxicity against human PANC-1 cells assessed as reduction in cell viability measured after 72 hrs by MTS assay; type: functional, cell-based; details: PANC-1, 72 h
U-251 = experiment: Cytotoxicity against human U-251 cells assessed as reduction in cell viability measured after 72 hrs by MTS assay; type: functional, cell-based; details: U-251, 72 h
K562 = experiment: Cytotoxicity against human K562 cells assessed as reduction in cell viability measured after 72 hrs by MTS assay; type: functional, cell-based; details: K562, 72 h
PANC-1 [3] = experiment: Cell cycle arrest in human PANC-1 cells assessed as accumulation at G0/G1-phase at 2.5 uM measured after 24 hrs by muse cell analyser (reference value: 48.28 to 48.7%); type: functional
PANC-1 [4] = experiment: Cell cycle arrest in human PANC-1 cells assessed as accumulation at S-phase at 2.5 uM measured after 24 hrs by muse cell analyser (reference value: 14.3 to 14.9%); type: functional
PANC-1 [5] = experiment: Cell cycle arrest in human PANC-1 cells assessed as accumulation at G2/M-phase at 2.5 uM measured after 24 hrs by muse cell analyser (reference value: 36.3 to 36.88%); type: functional
PANC-1 [6] = experiment: Cell cycle arrest in human PANC-1 cells assessed as accumulation at G2/M-phase at 5 uM measured after 24 hrs by muse cell analyser (reference value: 36.3 to 36.88%); type: functional
PANC-1 [7] = experiment: Cell cycle arrest in human PANC-1 cells assessed as accumulation at G0/G1-phase at 7.5 uM measured after 24 hrs by muse cell analyser (reference value: 48.28 to 48.7%); type: functional
PANC-1 [8] = experiment: Cell cycle arrest in human PANC-1 cells assessed as accumulation at S-phase at 7.5 uM measured after 24 hrs by muse cell analyser (reference value: 14.3 to 14.9%); type: functional
PANC-1 [9] = experiment: Cell cycle arrest in human PANC-1 cells assessed as accumulation at G2/M-phase at 7.5 uM measured after 24 hrs by muse cell analyser (reference value: 36.3 to 36.88%); type: functional
MCF7 [10] = experiment: Cell cycle arrest in human MCF7 cells assessed as accumulation at G0/G1-phase at 5 uM measured after 24 hrs by muse cell analyser (reference value: 52.65 to 53.3%); type: functional
MCF7 [11] = experiment: Cell cycle arrest in human MCF7 cells assessed as accumulation at S-phase at 5 uM measured after 24 hrs by muse cell analyser (reference value: 9.9 to 11.66%); type: functional
MCF7 [12] = experiment: Cell cycle arrest in human MCF7 cells assessed as accumulation at G2/M-phase at 5 uM measured after 24 hrs by muse cell analyser (reference value: 30.92 to 33.6%); type: functional
MCF7 [13] = experiment: Cell cycle arrest in human MCF7 cells assessed as accumulation at G0/G1-phase at 7.5 uM measured after 24 hrs by muse cell analyser (reference value: 52.65 to 53.3%); type: functional
MCF7 [14] = experiment: Cell cycle arrest in human MCF7 cells assessed as accumulation at S-phase at 7.5 uM measured after 24 hrs by muse cell analyser (reference value: 9.9 to 11.66%); type: functional
PANC-1 [15] = experiment: Induction of apoptosis in human PANC-1 cells measured after 48 hrs by Annexin V and dead cell kit analysis; type: functional, cell-based; details: dose 5-7.5 µM
MCF7 [16] = experiment: Induction of apoptosis in human MCF7 cells measured after 48 hrs by Annexin V and dead cell kit analysis; type: functional, cell-based; details: dose 5-7.5 µM
PANC-1 [17] = experiment: Induction of apoptosis in human PANC-1 cells assessed as viable cells at 5 uM measured after 48 hrs by Annexin V and dead cell kit analysis (reference value: 85.6%); type: functional; details: read-out: Activity
PANC-1 [18] = experiment: Induction of apoptosis in human PANC-1 cells assessed as early apoptotic cells at 5 uM measured after 48 hrs by Annexin V and dead cell kit analysis (reference value: 10.95%); type: functional
PANC-1 [19] = experiment: Induction of apoptosis in human PANC-1 cells assessed as viable cells at 7.5 uM measured after 48 hrs by Annexin V and dead cell kit analysis (reference value: 85.6%); type: functional; details: read-out: Activity
PANC-1 [20] = experiment: Induction of apoptosis in human PANC-1 cells assessed as early apoptotic cells at 7.5 uM measured after 48 hrs by Annexin V and dead cell kit analysis (reference value: 10.95%); type: functional
PANC-1 [21] = experiment: Induction of apoptosis in human PANC-1 cells assessed as late apoptotic cells at 7.5 uM measured after 48 hrs by Annexin V and dead cell kit analysis (reference value: 2.4%); type: functional
MCF7 [22] = experiment: Induction of apoptosis in human MCF7 cells assessed as viable cells at 5 uM measured after 48 hrs by Annexin V and dead cell kit analysis (reference value: 97.4%); type: functional; details: read-out: Activity
MCF7 [23] = experiment: Induction of apoptosis in human MCF7 cells assessed as early apoptotic cells at 5 uM measured after 48 hrs by Annexin V and dead cell kit analysis (reference value: 0.65%); type: functional
MCF7 [24] = experiment: Induction of apoptosis in human MCF7 cells assessed as late apoptotic cells at 5 uM measured after 48 hrs by Annexin V and dead cell kit analysis (reference value: 1.45%); type: functional
MCF7 [25] = experiment: Induction of apoptosis in human MCF7 cells assessed as viable cells at 7.5 uM measured after 48 hrs by Annexin V and dead cell kit analysis (reference value: 97.4%); type: functional; details: read-out: Activity
PANC-1 [26] = experiment: Induction of reactive oxygen species generation in human PANC-1 cells at 1 uM measured after 12 hrs by cellrox-green reagent based assay; type: functional, cell-based
PANC-1 [27] = experiment: Down regulation of p21 expression in human PANC-1 cells at 5 uM measured after 24 hrs by Western blot analysis; type: functional, cell-based
MCF7 [28] = experiment: Down regulation of p21 expression in human MCF7 cells at 5 uM measured after 24 hrs by Western blot analysis; type: functional, cell-based
MCF7 [29] = experiment: Down regulation of cyclin E1 expression in human MCF7 cells at 1 uM measured after 24 hrs by Western blot analysis; type: functional, cell-based
PANC-1 [30] = experiment: Effect on cdc2 expression in human PANC-1 cells at 0.5 to 5 uM measured after 24 hrs by Western blot analysis; type: functional, cell-based; details: dose 0.5-5 µM
MCF7 [31] = experiment: Effect on cdc2 expression in human MCF7 cells at 1 to 5 uM measured after 24 hrs by Western blot analysis; type: functional, cell-based; details: dose 1-5 µM
[32] = Up regulation of HIF1 expression in human MCF7 cells at 1 to 5 uM measured after 24 hrs by Western blot analysis relative to control; type: functional; details: dose 1-5 µM
[33] = Up regulation of HIF1 expression in human PANC-1 cells at 0.5 to 5 uM measured after 24 hrs by Western blot analysis relative to control; type: functional; details: dose 0.5-5 µM
PANC-1 [34] = experiment: Up regulation of p53 expression in human PANC-1 cells at 0.5 to 5 uM measured after 24 hrs by Western blot analysis relative to control; type: functional, cell-based; details: dose 0.5-5 µM
DNA [35] = experiment: Induction of Escherichia coli supercoiled pUC19 plasmid DNA cleavage assessed as increase in open circular form of a plasmid at 25 uM incubated for 60 mins by agarose gel electrophoresis analysis; type: nucleic-acid assay
DNA [36] = experiment: Induction of Escherichia coli supercoiled pUC19 plasmid DNA cleavage assessed as decrease in supercoiled form of plasmid at 25 uM incubated for 60 mins by agarose gel electrophoresis analysis; type: nucleic-acid assay

## c1ccc(-c2cn(-c3ccc(-c4cc(-c5ccccn5)nc(-c5ccccn5)c4)cc3)nn2)nc1
MCF7 [1]
  IC50: 407 nM
PANC-1 [2]
  IC50: 114 nM
U-251
  IC50: 855 nM
K562
  IC50: 916 nM
PANC-1 [3]
  Activity: 53.98%
PANC-1 [4]
  Activity: 11.2%
PANC-1 [5]
  Activity: 30.2%
PANC-1 [6]
  Activity: 35.25%
PANC-1 [7]
  Activity: 58.75%
PANC-1 [8]
  Activity: 6.9%
PANC-1 [9]
  Activity: 31%
MCF7 [10]
  Activity: 55.97%
MCF7 [11]
  Activity: 12.1%
MCF7 [12]
  Activity: 22.4%
MCF7 [13]
  Activity: 60.4%
MCF7 [14]
  Activity: 10%
PANC-1 [15]
  Activity: Dose-dependent effect
MCF7 [16]
  Activity: Dose-dependent effect
PANC-1 [17]
  viability at 5 µM: 48.8%
PANC-1 [18]
  Activity: 41.4%
PANC-1 [19]
  viability at 7.5 µM: 39%
PANC-1 [20]
  Activity: 54.6%
PANC-1 [21]
  Activity: 4.55%
MCF7 [22]
  viability at 5 µM: 67.1%
MCF7 [23]
  Activity: 10.6%
MCF7 [24]
  Activity: 11.4%
MCF7 [25]
  viability at 7.5 µM: 50.2%
PANC-1 [26]
  Activity: Active
PANC-1 [27]
  Activity: Active
MCF7 [28]
  Activity: Active
MCF7 [29]
  Activity: Active
PANC-1 [30]
  Activity: inactive
MCF7 [31]
  Activity: inactive
[32]
  fold change (FC): 45
[33]
  fold change (FC): 30
PANC-1 [34]
  Activity: inactive
DNA [35]
  Activity: Active
DNA [36]
  Activity: Active

From ChEMBL document CHEMBL4706629, “New derivatives of 4'-phenyl-2,2':6',2″-terpyridine as promising anticancer agents” (Eur J Med Chem, 2021)
